This note sets out measurements from US10508109B2 (priority 2015, dated 2019).

Where a name gives a salt, the structure may show the parent alone. Read-outs that look alike come from different tables or passages of the source.

One assay concerns A549. The experiment in a line: Cell-based assay, anti-proliferative activity (Cell Counting Kit-8, 72 hours). The note with it: Homo sapiens. The protocol:
100 micro-L of cell suspension was seeded onto 96-well microtiter plate (ViewPlate-96FTC, PerkinElmer). […] Cellular growth was determined using Cell Counting Kit-8 (DOJINDO) at 72 hours after the exposure of the candidate inhibitors. […] Accurate IC50 values were calculated as described previously.
(In general: Tetrazolium dyes change colour on reduction, which living cells bring about.)

Another assay has as its system CCD-18Co. The assay is described as above. To be noted: Homo sapiens, read-out: IC50 (μM) CCD-18Co. How it is done:
(§1) Active candidate inhibitors against SUV39H2 were evaluated for their target-specific cytotoxicity using A549, HCT-116, HFL1, CCD-18Co and PC14. 100 micro-L of cell suspension was seeded onto 96-well microtiter plate (ViewPlate-96FTC, PerkinElmer). The initial cell concentration of A549, HCT-116, HFL1, CCD-18Co and PC14 were 3,000 cells/well, 2,000 cells/well and 2,500 cells/well, respectively. Cellular growth was determined using Cell Counting Kit-8 (DOJINDO) at 72 hours after the exposure of the candidate inhibitors. IC50 was used as an indicator of the anti-proliferative activity of the inhibitors, and calculated by serial dilution method (0, 1.5625, 3.125, 6.25, 12.5, 25, 50, and 100 micro-M). Accurate IC50 values were calculated as described previously.

The next assay concerns HCT-116. Described as above. To be noted: Homo sapiens, read-out: IC50 (μM) HCT-116. The protocol: as §1
The next assay concerns HFL1. The assay is described as above. To be noted: Homo sapiens, read-out: IC50 (μM) HFL1. The protocol: as §1
Another assay deals with SUV39H2 (Homo sapiens (Human), UniProt Q9H5I1). To be noted: read-out: IC50 (μM) Suv 39H2 assay.
Chain of SUV39H2 (Q9H5I1 whole entry): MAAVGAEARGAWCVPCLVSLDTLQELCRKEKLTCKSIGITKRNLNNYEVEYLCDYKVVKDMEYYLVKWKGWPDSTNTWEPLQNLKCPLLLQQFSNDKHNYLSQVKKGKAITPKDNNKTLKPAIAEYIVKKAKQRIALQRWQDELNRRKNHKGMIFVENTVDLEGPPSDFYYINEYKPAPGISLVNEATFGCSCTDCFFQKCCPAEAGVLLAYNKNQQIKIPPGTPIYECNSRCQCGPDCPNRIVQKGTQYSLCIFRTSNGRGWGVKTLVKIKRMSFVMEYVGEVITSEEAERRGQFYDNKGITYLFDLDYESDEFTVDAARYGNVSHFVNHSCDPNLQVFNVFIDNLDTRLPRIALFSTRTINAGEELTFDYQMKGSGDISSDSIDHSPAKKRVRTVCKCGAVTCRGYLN
The mark [1] stands for this setting: A549 cells, Cell Counting Kit-8, 72 hours, read-out: IC50 (μM) A549.
Setting [2] is: CCD-18Co cells, Cell Counting Kit-8, 72 hours.
Where [3] appears, read: HCT-116 cells, Cell Counting Kit-8, 72 hours.
Where [4] appears, read: HFL1 cells, Cell Counting Kit-8, 72 hours.
The mark [5] stands for this setting: A549, 72 h, read-out: IC50 (μM) A549.
The mark [6] stands for this setting: A549 cells, 72 hours exposure, Cell Counting Kit-8, read-out: A549 IC50.

As to `COc1cc(OC)c(-c2cn3cc(CCCCN)c(N4CCOCC4)cc3n2)cc1Cl` [Example 114, 4-(2-(5-chloro-2,4-dimethoxyphenyl)-7-morpholinoimidazo[1,2-a]pyridin-6-yl)butan-1-amine], the IC50 – broadly, the concentration that inhibits the measured activity by half – came to 8.7 µM in the assay with A549 (setting [1]); 8.9 µM with CCD-18Co (setting [2]); 7.9 µM in the assay with HCT-116 (setting [3]); 6.2 µM in the assay on HFL1 (setting [4]); 0.0502 µM on SUV39H2 (enzyme assay).

As to `COc1cc(OC)c(-c2cn3ccc(C4CCC(=O)CC4)cc3n2)cc1Cl` [Example 119, 4-(2-(5-chloro-2,4-dimethoxyphenyl)imidazo[1,2-a]pyridin-7-yl)-cyclohexanone], the IC50 in the assay with A549 (setting [5]) was found to be 5.8 µM; in the assay on CCD-18Co (CCD-18Co, 72 h) it was 3.6 µM; in the assay with HCT-116 (HCT-116, 72 h) it was 9.7 µM; in the assay with HFL1 (HFL1, 72 h), 3.5 µM; at SUV39H2 (enzyme assay) it was 0.0429 µM.

For `COc1cc(OC)c(-c2cn3ccc(N4CCC(NC(=O)OC(C)(C)C)C4)nc3n2)cc1Cl` (stereo not shown) [Example 26, tert-butyl (1-(2-(5-chloro-2,4-dimethoxyphenyl)imidazo[1,2-a]pyrimidin-7-yl)pyrrolidin-3-yl)carbamate], the IC50 in the assay on A549 (setting [1]) stood at 7.9 µM; in the assay with CCD-18Co (setting [2]), 7.9 µM; with HCT-116 (setting [3]), 13 µM; with HFL1 (setting [4]), 6.7 µM; at SUV39H2 (enzyme assay), 0.017 µM.

For the compound `COc1cc(OC)c(-c2cn3ccc(N4CCC(CCN)CC4)nc3n2)cc1Cl` [Example 67], the concentration for half-maximal inhibition (IC50) in the assay with A549 (setting [1]) was 12 µM; in the assay with CCD-18Co (setting [2]), 13 µM; in the assay with HCT-116 (setting [3]), 13 µM; in the assay with HFL1 (setting [4]) it was 9.6 µM; on SUV39H2 (enzyme assay) it was 0.0216 µM.

As for `COc1cc(OC)c(-c2cn3ccc(NCCN4CCOCC4)cc3n2)cc1Cl` [Example 70, 2-(5-chloro-2,4-dimethoxyphenyl)-N-(2-morpholinoethyl)imidazo[1,2-a]pyridine-7-amine], the IC50 in the assay on A549 (setting [1]) is 14 µM; in the assay with CCD-18Co (setting [2]) it was 14 µM; in the assay with HCT-116 (setting [3]), 10 µM; with HFL1 (setting [4]), 8.4 µM; on SUV39H2 (enzyme assay), 0.0165 µM.

For `COc1cc(OC)c(-c2cn3ccc(N4CC[C@@H](N)C4)nc3n2)cc1Cl` [Example 55, (R)-1-(2-(5-Chloro-2,4-dimethoxyphenyl)imidazo[1,2-a]pyrimidin-7-yl)pyrrolidin-3-amine hydrochloride], the IC50 was 12 µM with A549 (setting [5]); 14 µM with CCD-18Co (CCD-18Co, 72 h); 10 µM in the assay with HCT-116 (HCT-116, 72 h); 4.8 µM in the assay on HFL1 (HFL1, 72 h); 0.0262 µM at SUV39H2.

For the compound `COc1cc(OC)c(-c2cn3ccc(NCCCN)cc3n2)cc1Cl` [Example 35, N^1-(2-(5-chloro-2,4-dimethoxyphenyl)imidazo[1,2-a]pyridin-7-yl)propane-1,3-diamine], the IC50 with A549 (setting [1]) came to 14 µM; in the assay with CCD-18Co (setting [2]) it was 14 µM; with HCT-116 (setting [3]) it was 9.8 µM; with HFL1 (setting [4]), 7 µM; on SUV39H2 (enzyme assay), 0.0124 µM.

Regarding `COc1cc(OC)c(-c2cn3ccc(N(C)CCNC(=O)OC(C)(C)C)cc3n2)cc1Cl` [Example 48, tert-butyl (2-((2-(5-chloro-2,4-dimethoxyphenyl)imidazo[1,2-a]pyridine-7-yl)(methyl)aimno)ethyl)carbamate], the IC50 in the assay on A549 (setting [1]) came out at 8.2 µM; with CCD-18Co (setting [2]), 6.4 µM; in the assay with HCT-116 (setting [3]), 7.3 µM; with HFL1 (setting [4]), 3.8 µM; on SUV39H2 (enzyme assay), 0.0124 µM.

`COc1cc(OC)c(-c2cn3ccc(N4CCN(CCC(=O)O)CC4)cc3n2)cc1Cl` [Example 133, 3-(4-(2-(5-chloro-2,4-dimethoxyphenyl)imidazo[1,2-a]pyridin-7-yl)piperazin-1-yl)propanoic acid]: on SUV39H2 (enzyme assay), the IC50 worked out at 0.0137 µM.

Consider `COc1cc(OC(C)C)c(-c2cn3ccc(N4CCCC4)cc3n2)cc1Br` [Example 53, hydrobromide], for which the 50% inhibitory concentration (IC50) was 2.5 µM in the assay on A549 (setting [1]); 2.1 µM with CCD-18Co (setting [2]); 2.4 µM in the assay on HCT-116 (setting [3]); 1.9 µM with HFL1 (setting [4]); 0.0181 µM on SUV39H2 (enzyme assay).

Consider `COc1cc(OC)c(-c2cn3ccc(N4CCC(NC(=O)NCCN)C4)cc3n2)cc1Cl` (stereo not shown) [Example 62, 1-(2-aminoethyl)-3-(1-(2-(5-chloro-2,4-dimethoxyphenyl)imidazo[1,2-a]-pyridin-7-yl)pyrrolidin-3-yl)urea], for which the IC50 on SUV39H2 (enzyme assay) is 0.00514 µM.

As for `COC(=O)c1ccc(CN[C@H]2CC[C@@H](Nc3ccn4cc(-c5cc(Cl)c(OC)cc5OC)nc4c3)CC2)cc1` [Example 409, methyl 4-(((cis-4-((2-(5-chloro-2,4-dimethoxyphenyl)imidazo[1,2-a]pyridin-7-yl)amino)cyclohexyl)amino)methyl)benzoate bis(2,2,2-trifluoroacetate)], in the assay on A549 (setting [6]), the IC50 is 0.86 µM.

Turning to `COc1cc(OC)c(-c2cn3ccc(N4CCN(c5cnc(N6CCNCC6)nc5)CC4)cc3n2)cc1Cl` [Example 344, 2-(5-chloro-2,4-dimethoxyphenyl)-7-(4-(2-(piperazin-1-yl)pyrimidin-5-yl)piperazin-1-yl)imidazo[1,2-a]pyridine bis(2,2,2-trifluoroacetate)], the IC50 with A549 (setting [6]) worked out at 0.35 µM.

On to `COc1cc(OC)c(-c2cn3ccc(N4CCCC4)nc3n2)cc1C#N` [Example 69, 2,4-dimethoxy-5-(7-(pyrrolidin-1-yl)imidazo[1,2-a]pyrimidin-2-yl)-benzonitrile hydrochloride], for which the concentration for half-maximal inhibition (IC50) on SUV39H2 was found to be 0.0141 µM.

Turning to `COc1cc(OC)c(-c2cn3ccc(C)cc3n2)cc1Cl` [Example 76, 2-(5-chloro-2,4-dimethoxyphenyl)-7-methylimidazo[1,2-a]pyridine hydrobromide], the IC50 at SUV39H2 (enzyme assay) is 0.0665 µM.

Take `COc1cc(OC)c(-c2cn3ccc(N4CC[C@H](NCC5CCN(S(=O)(=O)C6CC6)CC5)C4)cc3n2)cc1Cl` [Example 421, (S)-1-(2-(5-chloro-2,4-dimethoxyphenyl)imidazo[1,2-a]pyridin-7-yl)-N-((1-(cyclopropylsulfonyl)piperidin-4-yl)methyl)pyrrolidin-3-amine]: the IC50 in the assay on A549 (setting [6]) was found to be 0.94 µM.

On to `COc1cc(OC)c(-c2cn3ccc(NCCN4CCCCC4)cc3n2)cc1Cl` [Example 64, 2-(5-chloro-2,4-dimethoxyphenyl)-N-(2-(piperidin-1-yl)ethyl)imidazo[1,2-a]pyridine-7-amine], for which the IC50 in the assay on A549 (setting [5]) came out at 4.2 µM; in the assay on CCD-18Co (CCD-18Co, 72 h), 4.5 µM; in the assay with HCT-116 (HCT-116, 72 h), 3.4 µM; in the assay with HFL1 (HFL1, 72 h) it was 2.6 µM.

Turning to `COc1cc(OC)c(-c2cn3ccc(N4CCC(NC(=O)CCN)C4)cc3n2)cc1Cl` (stereo not shown) [Example 50, 3-amino-N-(1-(2-(5-chloro-2,4-dimethoxyphenyl)imidazo[1,2-a]pyridin-7-yl)pyrrolidin-3-yl)propanamide], the IC50 on SUV39H2 (enzyme assay) was determined as 0.00575 µM.

Consider `COc1cc(OC)c(-c2cn3ccc(N4CCC(NC(=O)[C@H](CCC(N)=O)NC(=O)OC(C)(C)C)C4)cc3n2)cc1Cl` (stereo partly drawn) [Example 39, tert-butyl ((2S)-5-amino-1-((1-(2-(5-chloro-2,4-dimethoxyphenyl)imidazo[1,2-a]pyridin-7-yl)pyrrolidin-3-yl)amino)-1,5-dioxopentan-2-yl)carbamate], for which the IC50 at SUV39H2 (enzyme assay) was 0.00489 µM.

Consider `COc1cc(OC)c(-c2cn3ccc(N4CCC(NC(N)=O)C4)cc3n2)cc1Cl` (stereo not shown) [Example 38, 1-(1-(2-(5-chloro-2,4-dimethoxyphenyl)imidazo[1,2-a]pyridin-7-yl)pyrrolidin-3-yl)urea], for which, on SUV39H2 (enzyme assay), the IC50 was determined as 0.00411 µM.

For the compound “3-amino-N-(3-(2-(5-bromo-2,4-dimethoxyphenyl)imidazo[1,2-a]pyrimidin-7-yl)cyclopentyl)propanamide hydrochloride [Example 68]”, the IC50 at SUV39H2 (enzyme assay) was determined as 0.0162 µM.

Regarding `COCC(=O)N1CCN(c2ccn3cc(-c4cc(Cl)c(OC)cc4OC)nc3c2)C(C)C1` (stereo not shown) [Example 313, 1-(4-(2-(5-chloro-2,4-dimethoxyphenyl)imidazo[1,2-a]pyridin-7-yl)-3-methylpiperazin-1-yl)-2-methoxyethanone], the IC50 with A549 (setting [6]) came out at 10 µM.

Take `COc1cc(OC)c(-c2cn3ccc(C4=CCN(CCC(=O)O)CC4)cc3n2)cc1Cl` [Example 141, 3-(4-(2-(5-chloro-2,4-dimethoxyphenyl)imidazo[1,2-a]pyridin-7-yl)-5,6-dihydropyridin-1(2H)-yl)propanoic acid]: the IC50 on SUV39H2 (enzyme assay) came out at 0.0777 µM.

Regarding `COc1cc(OC)c(-c2cn3ccc(N)nc3n2)cc1C#N` [Example 46, 5-(7-aminoimidazo[1,2-a]pyrimidin-2-yl)-2,4-dimethoxybenzonitrile], the IC50 at SUV39H2 (enzyme assay) came to 0.0453 µM.

As to `COc1cc(OC)c(-c2cn3ccc(O)cc3n2)cc1Cl` [Example 20, 2-(5-chloro-2,4-dimethoxyphenyl)imidazo[1,2-a]pyridin-7-ol], the IC50 on SUV39H2 (enzyme assay) was 0.09 µM.
